Reference: patent publication US11254686B1 (Corvus Pharmaceuticals, Inc., priority 2017, dated 2022)

Tests used:
adenosine A2B receptor = adenosine A2B receptor (Homo sapiens (Human), UniProt P29275); experiment: Adenosine receptor activity assay (Table 1), A2B activity; format: biochemical; conditions: for Ratio: A2A activity to A2B activity (A2A/A2B); for IC50: read-out: Ave A2B cAMP IC50
adenosine A2A receptor = adenosine A2A receptor (Homo sapiens (Human), UniProt P29274); experiment: Adenosine receptor activity assay (Table 1), A2A activity; format: biochemical; conditions: read-out: Ave A2A cAMP IC50
adenosine A2A receptor, sequence (P29274 whole entry): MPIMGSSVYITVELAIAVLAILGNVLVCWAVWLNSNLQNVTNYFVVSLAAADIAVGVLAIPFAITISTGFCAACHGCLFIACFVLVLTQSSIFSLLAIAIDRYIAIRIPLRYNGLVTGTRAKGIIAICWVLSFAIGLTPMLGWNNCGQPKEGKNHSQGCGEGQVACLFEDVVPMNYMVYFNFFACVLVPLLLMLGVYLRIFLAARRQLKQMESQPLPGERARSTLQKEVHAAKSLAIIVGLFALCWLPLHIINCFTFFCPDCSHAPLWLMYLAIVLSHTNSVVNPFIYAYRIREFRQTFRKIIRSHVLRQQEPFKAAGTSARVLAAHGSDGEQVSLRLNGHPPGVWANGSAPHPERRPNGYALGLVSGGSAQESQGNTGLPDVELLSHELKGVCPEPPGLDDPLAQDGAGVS

adenosine A1 receptor [1] = biological target: T1, adenosine A1 receptor (Homo sapiens (Human), UniProt P30542); experiment: A1 cAMP IC50 assay (Table 1); format: biochemical
T1 sequence (P30542 whole entry): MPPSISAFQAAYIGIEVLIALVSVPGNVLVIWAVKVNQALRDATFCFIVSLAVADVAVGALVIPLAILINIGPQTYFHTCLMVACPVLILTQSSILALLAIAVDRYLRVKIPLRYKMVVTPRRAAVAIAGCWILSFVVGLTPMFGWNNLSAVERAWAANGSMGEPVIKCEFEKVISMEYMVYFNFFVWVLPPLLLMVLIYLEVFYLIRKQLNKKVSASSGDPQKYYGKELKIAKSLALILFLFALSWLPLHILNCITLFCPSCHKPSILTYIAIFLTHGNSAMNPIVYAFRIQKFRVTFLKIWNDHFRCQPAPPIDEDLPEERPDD

adenosine A3 receptor [2] = biological target: T2, adenosine A3 receptor (Homo sapiens (Human), UniProt P0DMS8); experiment: A3 cAMP IC50 assay (Table 1); format: biochemical
T2 sequence (P0DMS8 whole entry): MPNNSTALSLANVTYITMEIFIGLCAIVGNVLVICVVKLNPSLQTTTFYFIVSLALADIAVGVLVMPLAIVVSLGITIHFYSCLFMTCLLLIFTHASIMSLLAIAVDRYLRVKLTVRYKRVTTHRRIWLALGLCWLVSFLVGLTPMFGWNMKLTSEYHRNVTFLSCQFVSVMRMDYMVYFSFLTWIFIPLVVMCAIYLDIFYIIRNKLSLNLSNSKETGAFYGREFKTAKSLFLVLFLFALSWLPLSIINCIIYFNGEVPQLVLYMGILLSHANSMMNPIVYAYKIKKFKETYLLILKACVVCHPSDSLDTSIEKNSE

CYP3A4 = CYP3A4 (Homo sapiens (Human), UniProt P08684); experiment: CYP450 inhibition at 10 μM, CYP3A4; format: in vitro ADME; conditions: human, 10 μM, read-out: CYP 450 % INH @ 10 μM
CYP3A4, sequence (P08684 whole entry): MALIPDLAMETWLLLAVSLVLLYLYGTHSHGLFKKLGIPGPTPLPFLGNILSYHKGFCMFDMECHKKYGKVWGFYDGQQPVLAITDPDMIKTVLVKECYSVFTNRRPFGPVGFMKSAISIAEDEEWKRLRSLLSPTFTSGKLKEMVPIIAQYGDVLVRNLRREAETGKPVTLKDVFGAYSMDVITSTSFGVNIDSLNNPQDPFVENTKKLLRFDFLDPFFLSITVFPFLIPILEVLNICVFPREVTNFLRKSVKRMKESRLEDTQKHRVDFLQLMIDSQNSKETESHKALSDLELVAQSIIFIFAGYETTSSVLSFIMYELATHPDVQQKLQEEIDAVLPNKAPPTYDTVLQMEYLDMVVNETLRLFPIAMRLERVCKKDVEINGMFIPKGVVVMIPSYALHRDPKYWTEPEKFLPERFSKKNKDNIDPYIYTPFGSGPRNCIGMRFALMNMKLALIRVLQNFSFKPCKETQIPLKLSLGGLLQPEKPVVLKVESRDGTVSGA

CYP2D6 = CYP2D6 (Homo sapiens (Human), UniProt P10635); experiment: CYP450 inhibition at 10 μM, CYP2D6; format: in vitro ADME; conditions: read-out: CYP 450 % INH @ 10 μM
CYP2D6, sequence (P10635 whole entry): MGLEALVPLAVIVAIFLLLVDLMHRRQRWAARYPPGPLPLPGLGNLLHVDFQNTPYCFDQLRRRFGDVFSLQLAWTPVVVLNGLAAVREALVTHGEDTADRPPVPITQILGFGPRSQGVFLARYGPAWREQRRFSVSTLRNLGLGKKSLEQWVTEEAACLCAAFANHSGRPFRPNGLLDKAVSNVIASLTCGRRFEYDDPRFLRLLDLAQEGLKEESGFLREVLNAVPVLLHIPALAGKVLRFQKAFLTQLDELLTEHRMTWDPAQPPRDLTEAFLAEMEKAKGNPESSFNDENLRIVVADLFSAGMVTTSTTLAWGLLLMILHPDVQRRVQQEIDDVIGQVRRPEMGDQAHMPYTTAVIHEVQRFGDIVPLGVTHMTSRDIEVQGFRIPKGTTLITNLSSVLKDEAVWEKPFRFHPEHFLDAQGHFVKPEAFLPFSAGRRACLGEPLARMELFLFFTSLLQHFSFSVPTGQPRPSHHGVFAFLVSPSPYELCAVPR

[3] = Liver microsome (LM) intrinsic clearance, rat; format: in vitro ADME
[4] = Liver microsome (LM) intrinsic clearance, human; format: in vitro ADME
[5] = Hepatocyte (Hep) intrinsic clearance, rat; format: in vitro ADME; conditions: hepatocytes
[6] = Hepatocyte (Hep) intrinsic clearance, human; format: in vitro ADME; conditions: hepatocytes
adenosine A1 receptor [7] = biological target: T1, adenosine A1 receptor; experiment: Adenosine receptor activity assay (Table 1), A1 cAMP; format: cell-based
adenosine A3 receptor [8] = biological target: T2, adenosine A3 receptor; experiment: Adenosine receptor activity assay (Table 1), A3 cAMP; format: cell-based
[9] = Hepatocyte intrinsic clearance, rat; format: in vitro ADME; conditions: hepatocytes
[10] = Hepatocyte intrinsic clearance, human; format: in vitro ADME; conditions: hepatocytes

adenosine A2B receptor, sequence (P29275 whole entry): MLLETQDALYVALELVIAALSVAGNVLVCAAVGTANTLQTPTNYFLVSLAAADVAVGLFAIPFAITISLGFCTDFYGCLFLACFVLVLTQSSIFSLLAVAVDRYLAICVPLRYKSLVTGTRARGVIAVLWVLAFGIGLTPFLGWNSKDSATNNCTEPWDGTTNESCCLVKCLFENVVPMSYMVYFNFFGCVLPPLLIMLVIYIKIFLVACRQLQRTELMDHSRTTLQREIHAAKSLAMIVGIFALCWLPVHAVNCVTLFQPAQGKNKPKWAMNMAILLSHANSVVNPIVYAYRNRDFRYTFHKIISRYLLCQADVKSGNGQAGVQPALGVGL

Ratio (adenosine A2B receptor)	IC50 (adenosine A2B receptor)	IC50 (adenosine A2A receptor)	IC50 (adenosine A1 receptor [1])	IC50 (adenosine A3 receptor [2])	inhibition at 10 µM (CYP3A4)	inhibition at 10 µM (CYP2D6)	LM CLint [3]	LM CLint [4]	hepatocyte CLint [5]	hepatocyte CLint [6]	IC50 (adenosine A1 receptor [7])	IC50 (adenosine A3 receptor [8])	hepatocyte CLint [9]	hepatocyte CLint [10]	SMILES
6.64	10 to 50 nM	100 to 500 nM	> 500 nM	> 500 nM	49%	7%	33.25 μL/min/mg/protein	51.28 μL/min/mg/protein	76.2 µL/min/1e6 cells	63.2 µL/min/1e6 cells					C[C@H](Nc1nc(C(=O)N2CC(F)(F)C2)c2sccc2n1)c1cccnc1 [Example Z32, (S)-(3,3-Difluoroazetidin-1-yl)(2-((1-(pyridin-3-yl)ethyl)amino)thieno[3,2-d]pyrimidin-4-yl)methanone]
4.99	10 to 50 nM	100 to 500 nM	> 500 nM	> 500 nM	82%	22%	81.23 μL/min/mg/protein	53.26 μL/min/mg/protein	131 µL/min/1e6 cells	23.5 µL/min/1e6 cells					C[C@@H]1CCN(C(=O)c2nc(N[C@@H](C)c3cccnc3)nc3ccsc23)C1 [Example Z34, ((R)-3-Methylpyrrolidin-1-yl)(2-(((S)-1-(pyridin-3-yl)ethyl)amino)thieno[3,2-d]pyrimidin-4-yl)methanone]
1.42	10 to 50 nM	10 to 50 nM	> 500 nM	50 to 100 nM	38%	3%	39.84 μL/min/mg/protein	14.10 μL/min/mg/protein	126 µL/min/1e6 cells	24.9 µL/min/1e6 cells					C[C@H](NC(=O)c1nc(N[C@@H](C)c2ccccn2)nc2ccsc12)c1ccccn1 [Example Z54, N—((S)-1-(Pyridin-2-yl)ethyl)-2-(((S)-1-(pyridin-2-yl)ethyl)amino)thieno[3,2-d]pyrimidine-4-carboxamide]
127.22	10 to 50 nM	> 500 nM	> 500 nM	> 500 nM	76%	19%	94.74 μL/min/mg/protein	63.74 μL/min/mg/protein	64.7 µL/min/1e6 cells	25.6 µL/min/1e6 cells					Cc1cncc(CNc2nc(C(=O)N3CCC3)c3sccc3n2)c1 [Example Z55, Azetidin-1-yl(2-(((5-methylpyridin-3-yl)methyl)amino)thieno[3,2-d]pyrimidin-4-yl)methanone]
66.23	< 10 nM	100 to 500 nM	> 500 nM	> 500 nM	65%	11%	46.03 μL/min/mg/protein	34.26 μL/min/mg/protein	63.1 µL/min/1e6 cells	22.8 µL/min/1e6 cells					O=C(c1nc(NCc2cncc(F)c2)nc2ccsc12)N1CC[C@@H](F)C1 [Example Z60, (R)-(2-(((5-Fluoropyridin-3-yl)methyl)amino)thieno[3,2-d]pyrimidin-4-yl)(3-fluoropyrrolidin-1-yl)methanone]
84.42	< 10 nM	100 to 500 nM	> 500 nM	> 500 nM	38%	10%	44.58 μL/min/mg/protein	33.16 μL/min/mg/protein	44.9 µL/min/1e6 cells	15.4 µL/min/1e6 cells					O=C(c1nc(NCc2cncc(F)c2)nc2ccsc12)N1CCC1 [Example Z61, Azetidin-1-yl(2-(((5-fluoropyridin-3-yl)methyl)amino)thieno[3,2-d]pyrimidin-4-yl)methanone]
60.76	10 to 50 nM	> 500 nM	> 500 nM	> 500 nM	34%	5%	12.51 μL/min/mg/protein	10.76 μL/min/mg/protein	25.6 µL/min/1e6 cells	7.12 µL/min/1e6 cells					O=C(c1nc(NCc2cncc(F)c2)nc2ccsc12)N1CC[C@H](O)C1 [Example Z62, (S)-(2-(((5-Fluoropyridin-3-yl)methyl)amino)thieno[3,2-d]pyrimidin-4-yl)(3-hydroxypyrrolidin-1-yl)methanone]
12.78	10 to 50 nM	100 to 500 nM	> 500 nM	> 500 nM	83%	39%	71.55 μL/min/mg/protein	47.64 μL/min/mg/protein	65.9 µL/min/1e6 cells	24.5 µL/min/1e6 cells					C[C@H]1CCN(C(=O)c2nc(N[C@@H](C)c3cccnc3)nc3ccsc23)C1 [Example Z63, ((S)-3-Methylpyrrolidin-1-yl)(2-(((S)-1-(pyridin-3-yl)ethyl)amino)thieno[3,2-d]pyrimidin-4-yl)methanone]
197.12	< 10 nM	100 to 500 nM									> 500 nM	> 500 nM	20.9 µL/min/1e6 cells	4.53 µL/min/1e6 cells	Cc1cc2nc(N[C@@H](C)c3cncc(F)c3)nc(C(=O)N3CC[C@H](O)C3)c2s1 [Example Z249, (2-(((S)-1-(5-Fluoropyridin-3-yl)ethyl)amino)-6-methylthieno[3,2-d]pyrimidin-4-yl)((S)-3-hydroxypyrrolidin-1-yl)methanone]
179.59	< 10 nM	100 to 500 nM									> 500 nM	> 500 nM	23.9 µL/min/1e6 cells	11.9 µL/min/1e6 cells	Cc1cc2nc(N[C@@H](C)c3cncc(F)c3)nc(C(=O)N3CC[C@@H](O)C3)c2s1 [Example Z250, (2-(((S)-1-(5-Fluoropyridin-3-yl)ethyl)amino)-6-methylthieno[3,2-d]pyrimidin-4-yl)((R)-3-hydroxypyrrolidin-1-yl)methanone]
105.81	< 10 nM	50 to 100 nM									50 to 100 nM	50 to 100 nM	45.9 µL/min/1e6 cells	9.44 µL/min/1e6 cells	Cc1cc2nc(N[C@@H](C)c3cncc(F)c3)nc(C(=O)N3CC(O)C3)c2s1 [Example Z267, (S)-(2-((1-(5-Fluoropyridin-3-yl)ethyl)amino)-6-methylthieno[3,2-d]pyrimidin-4-yl)(3-hydroxyazetidin-1-yl)methanone]
167.29	< 10 nM	100 to 500 nM									50 to 100 nM	50 to 100 nM	65.9 µL/min/1e6 cells	16.4 µL/min/1e6 cells	Cc1cc2nc(N[C@@H](C)c3cncc(F)c3)nc(C(=O)NC[C@H](C)O)c2s1 [Example Z277, 2-(((S)-1-(5-Fluoropyridin-3-yl)ethyl)amino)-N—((S)-2-hydroxypropyl)-6-methylthieno[3,2-d]pyrimidine-4-carboxamide]
87.33	< 10 nM	50 to 100 nM									50 to 100 nM	50 to 100 nM	43.3 µL/min/1e6 cells	14.8 µL/min/1e6 cells	Cc1cc2nc(N[C@@H](C)c3cncc(F)c3)nc(C(=O)NC[C@@H](C)O)c2s1 [Example Z278, 2-(((S)-1-(5-Fluoropyridin-3-yl)ethyl)amino)-N—((R)-2-hydroxypropyl)-6-methylthieno[3,2-d]pyrimidine-4-carboxamide]
88.64	10 to 50 nM	> 500 nM									> 500 nM	> 500 nM	18.6 µL/min/1e6 cells	5.45 µL/min/1e6 cells	Cc1cc2nc(N[C@@H](C)c3cccnc3)nc(C(=O)N3CC[C@@H](O)C3)c2s1 [Example Z281, ((R)-3-Hydroxypyrrolidin-1-yl)(6-methyl-2-(((S)-1-(pyridin-3-yl)ethyl)amino)thieno[3,2-d]pyrimidin-4-yl)methanone]
227.82	< 10 nM	> 500 nM									> 500 nM	> 500 nM	22.6 µL/min/1e6 cells	3.47 µL/min/1e6 cells	Cc1cc2nc(N[C@@H](C)c3cccnc3)nc(C(=O)N3CC[C@H](O)C3)c2s1 [Example Z297, ((S)-3-Hydroxypyrrolidin-1-yl)(6-methyl-2-(((S)-1-(pyridin-3-yl)ethyl)amino)thieno[3,2-d]pyrimidin-4-yl)methanone]
146.28	10 to 50 nM	> 500 nM									> 500 nM	> 500 nM	25.7 µL/min/1e6 cells	19.5 µL/min/1e6 cells	C[C@H](Nc1nc(C(=O)N2CC[C@H](O)C2)c2sc(C(F)(F)F)cc2n1)c1cccnc1 [Example Z333, ((S)-3-Hydroxypyrrolidin-1-yl)(2-(((S)-1-(pyridin-3-yl)ethyl)amino)-6-(trifluoromethyl)thieno[3,2-d]pyrimidin-4-yl)methanone]
